Assay type in all cases: in vivo
One assay concerns Erysiphe graminis. Nature of the assay: Powdery Mildew of Wheat (Erysiphe graminis--ERYSGT). To be noted: wheat (cultivar Monon), 100 ppm spray to run off, inoculated after 24 hours; for pest or weed control at 100 ppm: Blumeria graminis, 1DP, read-out: control of plant disease, ERYSGT 1DP. A digest of the protocol:
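Wheat seedlings (cv. Monon, 1-2 leaf stage) were sprayed to run-off at 100 ppm, from acetone solution diluted with nine volumes 0.05% aqueous Tween-20 or Triton X-100. Control rated on a scale.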

In another assay the test system is Phytophthora infestans. Nature of the assay: whole plant or invertebrate. To be noted: for pest or weed control at 100 ppm: Phytophthora infestans, 24 h, read-out: control of plant disease, PHYTIN 1DP; for control of plant disease, PHYTIN 1DP: tomatoes (cultivar Rutgers), 100 ppm spray to run off, inoculated after 24 hours.
In a further assay the test system is Leptosphaeria nodorum. Nature of the assay: Glume blotch of wheat (Leptosphaeria nodorum--LEPTNO). To be noted: wheat (cultivar Monon), 100 ppm spray to run off, inoculated after 24 hours; for pest or weed control at 100 ppm: Parastagonospora nodorum, 1DP, read-out: control of plant disease, LEPTNO 1DP. Summed up:
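Wheat seedlings (cv. Monon, 1-2 leaf, BBCH 12) sprayed to run-off at 100 ppm; compound in acetone diluted with nine volumes 0.05% aqueous Tween-20 or Triton X-100. Spore inoculation with Leptosphaeria nodorum after 24 hours; disease rated in greenhouse once untreated controls developed symptoms.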

The subject of another assay is Puccinia recondita. Nature of the assay: Brown rust (Puccinia recondita--PUCCRT). The note with it: wheat (cultivar Monon), 100 ppm spray to run off, inoculated after 24 hours; for pest or weed control at 100 ppm: Puccinia recondita, 1DP, read-out: control of plant disease, PUCCRT 1DP. A digest of the protocol: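 Wheat (cv. Monon) seedlings were sprayed to run-off at 100 ppm, with compound in acetone diluted with nine volumes of 0.05% aqueous Tween-20 or Triton X-100. Plants were inoculated with Puccinia recondita spores 24 h later.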

Molecules are shown by their SMILES.

Data on 20 compounds can be found in patent US6133294A (priority 1999, dated 2000).

As for `CNC(=O)C(=NOC)c1ccccc1COc1ccc(-c2nc(C3CCCCC3)no2)cn1` [Example 73], the pest or weed control at 100 ppm with Erysiphe graminis was 75 to 100%; in the assay on Phytophthora infestans it was 25 to 74%; with Leptosphaeria nodorum, 0 to 24%; with Puccinia recondita it was 75 to 100%.

`CCCc1noc(-c2ccc(OCc3ccccc3C(=NOC)C(=O)NC)nc2)n1` [Example 74]: the pest or weed control at 100 ppm with Erysiphe graminis was 75 to 100%; with Phytophthora infestans, 0 to 24%; in the assay with Leptosphaeria nodorum, 0 to 24%; in the assay on Puccinia recondita, 75 to 100%.

For the compound `CNC(=O)C(=NOC)c1ccccc1COc1ccc(-c2nc(CC(C)C)no2)cn1` [Example 75], the pest or weed control at 100 ppm in the assay with Erysiphe graminis fell in the range of 75 to 100%; in the assay with Phytophthora infestans it was 0 to 24%; with Leptosphaeria nodorum, 25 to 74%; in the assay with Puccinia recondita, 75 to 100%.

Consider `CCc1cc(-c2cnc(OCc3ccccc3C(=NOC)C(=O)NC)c(Cl)c2)on1` [Example 76], for which the pest or weed control at 100 ppm with Erysiphe graminis is 75 to 100%; in the assay on Phytophthora infestans it was 25 to 74%; with Leptosphaeria nodorum, 75 to 100%; in the assay with Puccinia recondita it was 75 to 100%.

In the case of `CNC(=O)C(=NOC)c1ccccc1COc1ncc(-c2nc(CC(C)C)no2)cc1Cl` [Example 77], the pest or weed control at 100 ppm with Erysiphe graminis fell in the range of 75 to 100%; in the assay with Phytophthora infestans, 0 to 24%; in the assay with Leptosphaeria nodorum, 75 to 100%; with Puccinia recondita, 75 to 100%.

Turning to `CCCc1noc(-c2cnc(OCc3ccccc3C(=NOC)C(=O)NC)c(Cl)c2)n1` [Example 78], the pest or weed control at 100 ppm is 75 to 100% in the assay on Erysiphe graminis, 0 to 24% with Phytophthora infestans, 75 to 100% in the assay with Leptosphaeria nodorum and 75 to 100% with Puccinia recondita.

On to `CCc1noc(-c2nc(OCc3ccccc3C(=NOC)C(=O)NC)ccc2Cl)n1` [Example 81], for which the pest or weed control at 100 ppm in the assay with Erysiphe graminis lay in the range of 75 to 100%; with Phytophthora infestans, 25 to 74%; in the assay with Leptosphaeria nodorum, 25 to 74%; with Puccinia recondita it was 75 to 100%.

Regarding `CNC(=O)C(=NOC)c1ccccc1COc1ccc(Cl)c(-c2nc(C(C)(C)C)no2)n1` [Example 82], the pest or weed control at 100 ppm in the assay on Erysiphe graminis, with Phytophthora infestans, in the assay on Leptosphaeria nodorum and in the assay on Puccinia recondita was 75 to 100% throughout.

In the case of `CCc1noc(-c2cccc(OCc3ccccc3C(=NOC)C(=O)NC)n2)n1` [Example 83], the pest or weed control at 100 ppm in the assay on Erysiphe graminis lay in the range of 25 to 74%; in the assay with Phytophthora infestans, 75 to 100%; with Leptosphaeria nodorum, 75 to 100%; with Puccinia recondita it was 75 to 100%.

Turning to `CNC(=O)C(=NOC)c1ccccc1COc1cccc(-c2nc(C(C)(C)C)no2)n1` [Example 84], the pest or weed control at 100 ppm in the assay with Erysiphe graminis is 25 to 74%; with Phytophthora infestans, 75 to 100%; in the assay with Leptosphaeria nodorum it was 75 to 100%; with Puccinia recondita, 75 to 100%.

With `CCc1noc(-c2cccc(OCc3ccccc3C(=NOC)C(=O)NC)n2)n1` [Example 85], the “control of plant disease, ERYSGT 1DP” value in the assay with Erysiphe graminis is recorded as “+ (25-74% control of plant disease)”. In addition, the “control of plant disease, PHYTIN 1DP” value in the assay with Phytophthora infestans is recorded as “- (0-24% control of plant disease)”. Also, the “control of plant disease, LEPTNO 1DP” value with Leptosphaeria nodorum is “- (0-24% control of plant disease)”. Also, the “control of plant disease, PUCCRT 1DP” value in the assay with Puccinia recondita is “++ (75-100% control of plant disease)”.

As for `CNC(=O)C(=NOC)c1cccc(Cl)c1COc1cccc(-c2nc(C(C)(C)C)no2)n1` [Example 86], the “control of plant disease, ERYSGT 1DP” value with Erysiphe graminis is recorded as “++ (75-100% control of plant disease)”. The “control of plant disease, PHYTIN 1DP” value in the assay with Phytophthora infestans was “+ (25-74% control of plant disease)”. Moreover, the “control of plant disease, LEPTNO 1DP” value in the assay with Leptosphaeria nodorum is reported as “- (0-24% control of plant disease)”. Also, the “control of plant disease, PUCCRT 1DP” value in the assay on Puccinia recondita is on record as “++ (75-100% control of plant disease)”.

Turning to `CNC(=O)C(=NOC)c1ccccc1COc1cccc(-c2nc(C(C)C)no2)n1` [Example 87], the pest or weed control at 100 ppm with Erysiphe graminis, in the assay on Phytophthora infestans, in the assay on Leptosphaeria nodorum and in the assay on Puccinia recondita was 75 to 100% each time.

With `CNC(=O)C(=NOC)c1cccc(F)c1COc1cccc(-c2nc(C(C)(C)C)no2)n1` [Example 88], the “control of plant disease, ERYSGT 1DP” value with Erysiphe graminis is listed as “++ (75-100% control of plant disease)”. The “control of plant disease, PHYTIN 1DP” value with Phytophthora infestans is given as “++ (75-100% control of plant disease)”. Further, the “control of plant disease, LEPTNO 1DP” value in the assay on Leptosphaeria nodorum was “++ (75-100% control of plant disease)”. Moreover, the “control of plant disease, PUCCRT 1DP” value with Puccinia recondita is listed as “++ (75-100% control of plant disease)”.

With `CNC(=O)C(=NOC)c1ccccc1COc1cccc(-c2nc(C(F)(F)F)no2)n1` [Example 89], the pest or weed control at 100 ppm in the assay on Erysiphe graminis lay in the range of 0 to 24%; with Phytophthora infestans it was 75 to 100%; in the assay on Leptosphaeria nodorum, 0 to 24%; in the assay with Puccinia recondita, 75 to 100%.

As for `CON=C(C(=O)OC)c1ccccc1COc1ncc(-c2noc(C(C)(C)C)n2)cc1Cl` [Example 97], the pest or weed control at 100 ppm with Erysiphe graminis, in the assay on Phytophthora infestans, in the assay on Leptosphaeria nodorum and in the assay on Puccinia recondita was 75 to 100% throughout.

On to `COC=C(C(=O)OC)c1ccccc1COc1ncc(-c2noc(C(C)(C)C)n2)cc1Cl` [Example 98], for which the pest or weed control at 100 ppm with Erysiphe graminis was in the range of 75 to 100%; with Phytophthora infestans it was 0 to 24%; in the assay with Leptosphaeria nodorum it was 75 to 100%; in the assay with Puccinia recondita, 75 to 100%.

Consider `CCc1noc(-c2cnc(OCc3ccccc3C(=COC)C(=O)OC)c(Cl)c2)n1` [Example 99], for which the pest or weed control at 100 ppm fell in the range of 75 to 100% in the assay with Erysiphe graminis, 25 to 74% in the assay with Phytophthora infestans, 75 to 100% with Leptosphaeria nodorum and 75 to 100% in the assay with Puccinia recondita.

Consider `COC=C(C(=O)OC)c1ccccc1COc1ncc(-c2nc(C(C)(C)C)no2)cc1Cl` [Example 100], for which the pest or weed control at 100 ppm with Erysiphe graminis is 25 to 74%; with Phytophthora infestans, 75 to 100%; in the assay on Leptosphaeria nodorum it was 25 to 74%; with Puccinia recondita, 75 to 100%.

As to `CCc1noc(-c2cnc(OCc3ccccc3C(=NOC)C(=O)OC)c(Cl)c2)n1` [Example 101], the pest or weed control at 100 ppm in the assay with Erysiphe graminis was in the range of 75 to 100%; in the assay on Phytophthora infestans, 75 to 100%; with Leptosphaeria nodorum, 25 to 74%; in the assay with Puccinia recondita, 75 to 100%.
